Tests used:
[1] = test system: HeLa cells; assay: Quantitative phosphoproteomic analysis; type: cell-based, human; conditions: 30 min, 100 μM (LIMKi3, TH470) or 1 mM (TH257) as printed; for Significantly regulated phosphosites: p<0.01
[2] = test system: more than 200 full-length kinases in Hela cell lysate; assay: Kinobead pulldown assay in cellular lysate; type: binding, human; conditions: dose–response 30 μM to 1 nM
[3] = test system: 468 kinases; assay: KINOMEscan scanMAX kinase selectivity panel; type: binding, human

With CC(C)C(=O)Nc1ncc(-c2cc(C(F)F)nn2-c2c(Cl)cccc2Cl)s1 [Compound 1, reference compound] the Downregulated phosphosites [1] was 173 sites, the Upregulated phosphosites [1] was 189 sites and the Significantly regulated phosphosites [1] was 362 sites. For the same compound, the “Hits identified in kinobead assay” value [2] was “No other hits except LIMK1 and LIMK2 were identified”.

O=C(NCc1ccccc1)c1ccc(S(=O)(=O)NCc2ccccc2)cc1 [Compound 26, N-benzyl-4-(benzylsulfamoyl)benzamide] was tested, and the “Interaction with other kinases in KINOMEscan panel” value ([3]; screened at 1 μM, 468 kinases) was “no interacting kinase” and the “Hits identified in kinobead assay” value [2] was “No other hits except LIMK1 and LIMK2 were identified”.

With O=C(c1ccc(S(=O)(=O)Nc2ccccc2)cc1)N(Cc1ccccc1)Cc1cn(Cc2ccccc2)nn1 [Compound 33, N-benzyl-N-[(1-benzyl-1H-1,2,3-triazol-4-yl)methyl]-4-(phenylsulfamoyl)benzamide] the “Additional off-targets identified besides LIMK1/2” value ([3]; selectivity profiling) was “four”.

In the case of CC(C)C(=O)Nc1ncc(C(=O)NCCN(Cc2ccccc2)C(=O)c2ccc(S(=O)(=O)Nc3ccccc3)cc2)s1 [Compound 48, N-benzyl-N-(2-{[2-(2-methylpropanamido)-1,3-thiazol-5-yl]formamido}ethyl)-4-(phenylsulfamoyl)benzamide], the Downregulated phosphosites [1] is reported as 193 sites, the Upregulated phosphosites [1] is reported as 146 sites and the Significantly regulated phosphosites [1] is reported as 339 sites. The “Hits identified in kinobead assay” value [2] was “No other hits except LIMK1 and LIMK2 were identified”.

Reference: PMC9675044 (Journal of medicinal chemistry, 2022)
